4 molecules from US9388139B2, “Derivatives of celeboxib, use thereof and preparation thereof” (German University, priority 2011, dated 2016) can be followed below.

Where only a bound is given, the exact number is not on record here.

Experiment [1] deals with human colorectal HT-29 tumor cell line. Briefly: Tumor cell growth assay (Cell Titer Glo). It counts as cell-based. To be noted: HT-29, 72 hours, read-out: IC50 μM against HT-29.
For a further experiment, the target named is COX1 (Ovis aries (Sheep), UniProt P05979). In words: COX-1 activity, colorimetric assay. To be noted: screening dose 100 μM; read-out: IC50 μM against COX1. It counts as biochemical, ovine. As for the experimental part:
(§1) Compounds according to the present disclosure were tested for their in vitro ability to inhibit recombinant human PDE5, COX1 and COX2 enzymes at screening doses of 50, 100 and 100 μM respectively.
(§2) COX-1 and COX-2 activities were measured using purified ovine COX-1 and COX-2 with colorimetric assay kits obtained from Cayman Chemical Co. (Ann Arbor, Mich.). The activities of COX-1 and COX-2 were measured after the addition of arachidonic acid and incubation at 25° C. for 5 min by absorbance at 590 nm as specified by the manufacturer.

For a further experiment, the target named is recombinant human PDE5 (Homo sapiens (Human), UniProt O76074). In words: PDE5 inhibition, IMAP fluorescence polarization assay. It counts as biochemical. To be noted: recombinant human PDE5; IC50 determined if inhibition >50% at 50 μM screening dose; read-out: IC50 μM against PDE5. As for the experimental part: as §1
PDE activity was measured using the IMAP fluorescence polarization assay (Molecular Devices) in which binding of hydrolyzed cyclic nucleotide substrate to immobilized metal coordination complexes increases fluorescence polarization (FP). Tetramethylrhodamine (TAMRA)-cGMP and fluorescein-cAMP were used as substrates, each at final concentration of 50 nmol/L. The PDE assay was done according to the manufacturer's specifications using either whole cell lysates or recombinant enzymes.
(In fluorescence polarisation assays a small probe gives low polarisation when free and higher when bound to something large.)

Experiment [2] deals with human breast MDA-MB-231 tumor cell line. Briefly: Tumor cell growth assay (Cell Titer Glo). It counts as cell-based. Particulars: MDA-MB-231, 72 hours, read-out: IC50 μM against MDA-MB-231. Background: ATP-based viability assays read luminescence as a measure of living cells.
The next experiment has as its target COX2 (Ovis aries (Sheep), UniProt P79208). In words: COX-2 activity, colorimetric assay. It counts as biochemical, ovine. Particulars: screening dose 100 μM; read-out: IC50 μM against COX2. As for the experimental part:
as §1, §2

COX1, sequence (P05979 25-600): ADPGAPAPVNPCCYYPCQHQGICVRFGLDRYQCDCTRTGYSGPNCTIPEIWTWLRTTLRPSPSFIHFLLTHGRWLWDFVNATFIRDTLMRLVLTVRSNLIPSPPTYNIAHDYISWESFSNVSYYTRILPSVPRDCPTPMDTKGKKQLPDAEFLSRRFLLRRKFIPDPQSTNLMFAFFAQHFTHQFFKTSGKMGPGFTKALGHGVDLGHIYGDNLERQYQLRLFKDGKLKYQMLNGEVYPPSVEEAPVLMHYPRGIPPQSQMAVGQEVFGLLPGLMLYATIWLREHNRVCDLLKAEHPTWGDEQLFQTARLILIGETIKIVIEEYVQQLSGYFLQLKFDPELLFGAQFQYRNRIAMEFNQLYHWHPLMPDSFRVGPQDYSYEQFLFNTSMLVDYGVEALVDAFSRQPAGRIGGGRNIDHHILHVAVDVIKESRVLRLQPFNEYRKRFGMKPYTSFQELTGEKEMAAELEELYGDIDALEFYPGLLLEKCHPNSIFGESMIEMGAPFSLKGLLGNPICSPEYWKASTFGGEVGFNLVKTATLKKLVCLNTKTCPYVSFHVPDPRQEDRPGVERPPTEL
COX2, sequence (P79208 17-603): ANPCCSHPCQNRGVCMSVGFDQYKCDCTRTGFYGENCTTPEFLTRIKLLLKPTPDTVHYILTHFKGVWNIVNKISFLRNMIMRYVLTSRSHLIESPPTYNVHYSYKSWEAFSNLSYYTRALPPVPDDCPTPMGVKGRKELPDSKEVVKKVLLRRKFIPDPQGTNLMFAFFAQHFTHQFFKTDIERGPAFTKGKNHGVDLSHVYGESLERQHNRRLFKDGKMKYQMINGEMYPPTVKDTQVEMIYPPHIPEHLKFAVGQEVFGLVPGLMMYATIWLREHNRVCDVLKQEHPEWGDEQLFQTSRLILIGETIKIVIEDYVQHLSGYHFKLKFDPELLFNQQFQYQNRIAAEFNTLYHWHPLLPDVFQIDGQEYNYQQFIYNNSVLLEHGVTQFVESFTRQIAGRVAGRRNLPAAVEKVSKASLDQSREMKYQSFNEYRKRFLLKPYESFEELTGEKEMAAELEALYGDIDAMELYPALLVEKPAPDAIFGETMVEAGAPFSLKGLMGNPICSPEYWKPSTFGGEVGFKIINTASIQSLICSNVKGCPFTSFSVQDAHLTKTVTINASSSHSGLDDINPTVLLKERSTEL

As a reminder, the IC50 is the concentration at which inhibition is half-maximal. `CC(C)(C)C1=NN(c2ccc(C(=O)O)cc2)C(c2ccc(O)cc2)C1` (centres unmarked) [Compound 5, 4-(3-tert-Butyl-5-(4-hydroxyphenyl)-4,5-dihydro-1H-pyrazol-1-yl)benzoic acid]: the IC50 is above 50 µM in experiment [1]; above 100 µM on COX1; 2.1 µM on recombinant human PDE5; above 50 µM in experiment [2]; above 100 µM at COX2.
With `CC(C)(C)C1=NN(c2ccc(C(=O)O)cc2)C(c2ccccc2Cl)C1` (centres unmarked) [Compound 17, 4-(3-(tert-Butyl)-5-(2-chlorophenyl)-4,5-dihydro-1H-pyrazol-1-yl)benzoic acid], the IC50 was 20.8 µM in experiment [1]; above 100 µM at COX1; 1.9 µM on recombinant human PDE5; above 50 µM in experiment [2]; above 100 µM on COX2.
`CCOc1ccc(C2CC(C(C)(C)C)=NN2c2ccc(C(=O)O)cc2)cc1` (centres unmarked) [Compound 15, 4-(3-(tert-Butyl)-5-(4-ethoxyphenyl)-4,5-dihydro-1H-pyrazol-1-yl)benzoic acid]: the IC50 was 6 µM in experiment [1]; above 100 µM on COX1; 2.9 µM at recombinant human PDE5; above 50 µM in experiment [2]; above 100 µM on COX2.
As to `COc1ccc(C2CC(c3ccccc3OC)=NN2c2ccc(C(=O)O)cc2)cc1` (centres unmarked) [Compound 8, 4-(3-(2-Methoxyphenyl)-5-(4-methoxyphenyl)-4,5-dihydro-1H-pyrazol-1-yl)benzoic acid], the IC50 in experiment [1] was above 50 µM; on COX1 it was above 100 µM; on recombinant human PDE5, 3.2 µM; in experiment [2], above 50 µM; on COX2 it was above 100 µM.
